From patent US4269848A, “5-Substituted indan-2-carboxylic acid and functional derivatives” (Lipha, Lyonnaise Industrielle Pharmaceutique, priority 1976, dated 1981) come the findings set out here.

SMILES strings stand for the structures.

Data set [1] deals with spasms of pain caused by the intraperitoneal injection of a solution of acetic acid. In words: Analgesic activity, acetic acid induced spasms of pain (Koster et al.). In kind it is in vivo. To be noted: mouse, oral; dose reducing spasms of pain by 50%; read-out: AD50, Acetic Acid. On the procedure: B--Analgesic activity in the mouse was determined by the method of Koster et al. (Fed. Proc. 1959, Vol. 18, page 412). The active dose 50 (AD50) value for various compounds in accordance with the present invention was determined, namely, that dose which, when administered orally, reduces by 50% the spasms of pain caused by the intraperitoneal injection of a solution of acetic acid.

A short description of data set [2]: Experiment A: clinical case studies, anti-inflammatory activity, oral administration. It is filed as in vivo. On the procedure:
The following clinical experimentation was carried out to clinically test various compounds in accordance with the present invention for their anti-inflammatory, analgesic and platelet aggregation or clumping inhibition activites. […] Diagonsis: Seropositive, classic, rheumatoid polyarthritis, radioclinical stage IV Treatment: 600 mg/day for 3 weeks Diagnosis: Ankylosing spondylarthrittis with signs of peripheral joint inflammation Treatment: 600 mg/day for 3 weeks Diagnosis: Psoriatic peripheral rheumatism Treatment: 600 mg/day for 15 days

Data set [3] deals with carrageenin-induced edema. In words: Anti-inflammatory activity, carrageenin-induced edema test (Winter et al.). To be noted: rat, oral; dose inhibiting edema by 30%; read-out: AD30, Carrageenin. It is filed as in vivo. From the text:
The protection afforded, by oral administration of the compound to a rat against edema induced by injecting a suspension of carrageenin under the arch of the foot of the animal was investigated. The AD30 dose is that which inhibits the edema by 30%.

A further data set relates to platelets. In words: In vitro inhibition of platelet aggregation induced by collagen (Born). In kind it is cell-based. To be noted: read-out: minimal active concentration, Platelet Aggregation Induced By Collagen. As to the method:
E--The anti-inflammatory activity was also determined by the aggregation-inhibiting effect of the compounds in accordance with the present invention, in vitro, on platelets the aggregation of which was induced by collagen, in accordance with the method of Born (Journal of Physiology, 1962, Vol. 162, page 67). It is known that compounds which inhibit the activity or quantity of prostaglandin synthetase will inhibit the formation of prostaglandin PGE2 and the inflammatory and pyretic effect thereof. Since prostaglandin PGE2 also causes an increase in platelet aggregation, this test is an effective indication of anti-inflammatory and anti-pyretic activity due to inhibition of prostaglandin synthetase.

Data set [4] has as its system erythema produced by ultra violet radiation. In words: Protective effect against erythema from ultra violet radiation (Winder et al.). To be noted: Cavia porcellus; albino guinea pig, oral; amount reducing erythema by 50%; read-out: AD50, U.V. It is filed as in vivo, albino guinea pigs. On the procedure:
D--The protective effect against inflammation resulting from exposure to radiation was determined in albino guinea pigs using the method of Winder et al (Arch. Inv. Pharmacodyn. 1958, Vol. 116, page 261). The AD50 value was determined for the test substance, namely the amount which, when administered to the animal orally, reduced by 50% the erythema produced by exposing the shaved dorsal skin of the guinea pig to ultra violet radiation.

Data set [5] is described as follows: Acute toxicity, LD 50 (oral route), mice. To be noted: mouse, in vivo. The text has this: A--The substances are of low toxicity. For example, the LD 50 value (oral route), determined in mice, of various compounds in accordance with the present invention are shown in column A of Table I.
Data set [6] is described as follows: Experiment B: clinical case studies, analgesic activity, oral administration. In kind it is in vivo. The following applies: for Tolerance, Biological / Tolerance, Clinical: NAD = Nothing Abnormal Discovered. As to the method:
(§1) The following clinical experimentation was carried out to clinically test various compounds in accordance with the present invention for their anti-inflammatory, analgesic and platelet aggregation or clumping inhibition activites.
The following case studies relate to the analgesic activity associated with the oral administration of methyl 5-(4'-dimethylaminobenzoyl)-indan-2-carboxylate.
Diagnosis: Painful episode against a background of arthrosis of the cervical spine
Treatment: 600 mg/day for 3 weeks
Diagnosis: Pains in the right hip when pressure applied, secondary to aseptic osteonecrosis
Treatment: 600 mg/day for 15 days
Diagnosis: Arthrosis of the right hip resembling Paget's Disease

The test system of a further data set is platelet aggregation. In words: Experiment C: clinical case studies, platelet anti-aggregation activity, oral administration. In kind it is in vivo. On the procedure:
as §1
The following case studies relate to the platelet anti-aggregation activity associated with the oral administration of 2'-(N,N-diethylaminoethyl) 5-(2'-thenoyl)-indan-2-carboxylate.

Where [7] appears, read: Case 1, oral 600 mg/day for 3 weeks.
[8] abbreviates: Case 1, rheumatoid polyarthritis, oral 600 mg/day for 3 weeks.
[9] abbreviates: Case 2, ankylosing spondylarthritis, oral 600 mg/day for 3 weeks.
Where [10] appears, read: Case 3, oral 600 mg/day for 15 days.
Where [11] appears, read: Case 3, psoriatic peripheral rheumatism, oral 600 mg/day for 15 days.
The mark [12] stands for this setting: Case 1, arthrosis of the cervical spine, oral 600 mg/day for 3 weeks.
[13] abbreviates: Case 2, hip pain secondary to aseptic osteonecrosis, oral 600 mg/day for 15 days.
The mark [14] stands for this setting: Case 2, oral 600 mg/day for 15 days.
[15] abbreviates: Case 3, arthrosis of the right hip, oral 600 mg/day for 15 days.
Where [16] appears, read: Case 1, oral 200 mg, before treatment 100%.
The mark [17] stands for this setting: Case 2, oral 200 mg, before treatment 100%.
Setting [18] is: Case 3, oral 200 mg, before treatment 100%.

Turning to `Cc1ccc(C(=O)c2ccc3c(c2)CC(C(=O)O)C3)s1` (stereo not drawn) [5-(5'-Methyl-2'-thenoyl)-indan-2-carboxylic acid], the ED50 in data set [1] turned out to be 12 mg/kg. The Tolerance result in data set [2] (setting [7]) is “Very good clinical and biological tolerance”. Besides, in data set [2] (setting [8]), the Conclusion entry was “Good result”, the “erythrocyte sedimentation rate (ESR)” value is reported as “decrease”, the mobility result was “Improved mobility” and the morning stiffness result is “Decrease”. Further, the peripheral pain result in data set [2] (setting [8]) is “Decrease”. In data set [2] (setting [9]), the Conclusion entry is “Good result”, the analgesic effect entry was “Good analgesic effect”, the articular perimeters entry was “decrease in articular perimeters” and the “effectiveness compared with phenylbutazone” value was “As effective as phenylbutazone”. Further, the mobility entry in data set [2] (setting [9]) is “Good mobility”. Also, in data set [2] (Case 2, oral 600 mg/day for 3 weeks), the Tolerance result is “Good clinical and biological tolerance”. For the same compound, the Tolerance result in data set [2] (setting [10]) is “Good clinical and biological tolerance”. In data set [2] (setting [11]), the Conclusion result is reported as “Very good result”, the articular perimeter entry is reported as “decrease in articular perimeter”, the local heat result is listed as “decrease in local heat” and the morning pain result is “Decrease in morning pain”. The ED30 in data set [3] was found to be 7.5 mg/kg. Further, the minimal effective concentration with platelets came to 1 µg/mL. Further, the ED50 in data set [4] was determined as 14 mg/kg. The LD50 (as a rule, the dose expected to kill half of the subjects tested) in data set [5] worked out at 3000 mg/kg.
On to `COC(=O)C1Cc2ccc(C(=O)c3ccc(N(C)C)cc3)cc2C1` (stereo not drawn) [Methyl 5-(4'-dimethylaminobenzoyl)-indan-2-carboxylate], for which the Conclusion result was “Good result” in data set [6] (setting [12]), “Very good result” in data set [6] (setting [13]) and “Good result” in data set [6] (setting [15]). Further, the Length of relief in data set [6] (setting [12]) worked out at 4 h; in data set [6] (setting [13]), 4 h; in data set [6] (setting [15]) it was 2 h. For the same compound, the “Time taken to relieve pain” value in data set [6] (setting [12]) was determined as 30 min. In addition, the “Tolerance, Biological” value in data set [6] (setting [7]), in data set [6] (setting [14]) and in data set [6] (setting [10]) was “NAD” each time. Also, the “Tolerance, Clinical” value in data set [6] (setting [7]) is listed as “NAD (Nothing Abnormal Discovered)”; in data set [6] (setting [14]) it was “NAD”; in data set [6] (setting [10]), “NAD”. The “Time to relieve pain” value is “less than 15 minutes” in data set [6] (setting [13]) and 30 min in data set [6] (setting [15]). Further, the ED50 was determined as 2.5 mg/kg in data set [1] and 24 mg/kg in data set [4]. For the same compound, the ED30 in data set [3] was 12 mg/kg. Also, the minimal effective concentration in the data set with platelets amounted to 0.25 µg/mL. In data set [5], this compound displayed an LD50 of 1450 mg/kg.
On to `CCN(CC)CCOC(=O)C1Cc2ccc(C(=O)c3cccs3)cc2C1` (stereo not drawn) [2'-(N,N-diethylaminoethyl) 5-(2'-thenoyl)-indan-2-carboxylate], for which the “second phase of aggregation with ADP” value was “Inhibition” in the data set with platelet aggregation (Case 1, oral 200 mg); 0% in the data set with platelet aggregation (Case 2, oral 200 mg); “Inhibition” in the data set on platelet aggregation (Case 3, oral 200 mg). Further, the figures for the “Aggregation with collagen, 1 h after taking 200 mg” value in the data set with platelet aggregation (setting [16]), in the data set on platelet aggregation (setting [17]) and in the data set on platelet aggregation (setting [18]) were 0%, 10% and 0%, respectively. The “Aggregation with collagen, 3 h after taking 200 mg” value in the data set with platelet aggregation (setting [16]) turned out to be 0%; with platelet aggregation (setting [17]), 10%; in the data set on platelet aggregation (setting [18]), 0%. The “Aggregation with collagen 24 hours after the last dose” value in the data set with platelet aggregation (Case 1, oral, 24 h after last dose, before treatment 100%) stood at 10%. The “Aggregation with collagen 24 hours after last dose” value in the data set on platelet aggregation (Case 2, oral, 24 h after last dose, before treatment 100%) worked out at 15%; in the data set on platelet aggregation (Case 3, oral, 24 h after last dose, before treatment 100%), 0%.
